This is an account of results in ChEMBL document CHEMBL5131430, “Free radical scavenging activities of verbascoside and isoverbascoside from the leaves of Odontonema strictum (Acanthaceae)” (Bioorg Med Chem Lett, 2022).

Converted amounts (≈) assume the structure as drawn.

Experiment [1] is described as follows: Antioxidant activity assessed as DPPH radical scavenging activity. In kind it is functional. For orientation: DPPH is a stable violet radical that fades when it is reduced.
Experiment [2] can be described thus: Antioxidant activity assessed as hydrogen peroxide scavenging activity. In kind it is functional.

One may read the IC50 as the concentration that inhibits the measured activity by half. Take `C[C@@H]1O[C@@H](O[C@@H]2[C@@H](O)[C@H](OCCc3ccc(O)c(O)c3)O[C@H](CO)[C@H]2OC(=O)/C=C/c2ccc(O)c(O)c2)[C@H](O)[C@H](O)[C@H]1O` [ACETOSIDE]: the IC50 in experiment [1] is 0.09 mg/L (≈ 0.144 µM); in experiment [2], 2.6 mg/L (≈ 4.16 µM).

`O=C1O[C@H]([C@@H](O)CO)C(O)=C1O` [ASCORBIC ACID]: the IC50 in experiment [1] is 0.05 mg/L (≈ 0.284 µM); in experiment [2], 4.1 mg/L (≈ 23.3 µM).

`C[C@@H]1O[C@@H](O[C@@H]2[C@@H](O)[C@H](OCCc3ccc(O)c(O)c3)O[C@H](COC(=O)/C=C/c3ccc(O)c(O)c3)[C@H]2O)[C@H](O)[C@H](O)[C@H]1O` [ISOACTEOSIDE]: the values for the IC50 in experiment [1] and in experiment [2] were 0.16 mg/L (≈ 0.256 µM) and 3 mg/L (≈ 4.8 µM), respectively.
